Here are results for eleven molecules from patent US9872494B2, “Active ingredient combinations comprising pyridylethylbenzamides and other active ingredients” (priority 2010, dated 2018).

Common to all, as to format: in vivo
Series [1] has as its system green peach aphid (Myzus persicae). Description: Myzus test (spray treatment), Chinese cabbage leaf disks. To be noted: for Mortality in % after 1d: spray. An excerpt:
(§1) If the actual insecticide mortality is greater than calculated, then the combination is superadditive in its kill—that is, there is a synergistic effect. In this case the mortality actually observed must be greater than the value for the expected mortality (E) calculated on the basis of the formula given above.
Myzus Test (Spray Treatment)
Solvent: 78 parts by weight of acetone
• 1.5 parts by weight of dimethylformamide Emulsifier: 0.5 part by weight of alkylaryl polyglycol ether
A suitable preparation of active ingredient is prepared by mixing one part by weight of active ingredient with the stated amounts of solvent and emulsifier and diluting the concentrate with emulsifier-containing water to the desired concentration. A suitable suspension of biological agent is prepared by dissolving the cells, spores or viruses in emulsifier-containing water in the desired concentration.
Chinese cabbage (Brassica pekinensis) leaf disks infested by all stages of the green peach aphid (Myzus persicae) are sprayed with an active ingredient and/or biological agent preparation in the desired concentration.
After the desired time, the effect in % is ascertained. Here, 100% means that all of the aphids have been killed; 0% means that no aphids have been killed. The mortality figures determined are used for calculation according to the Colby formula (see sheet 1).

The subject of series [2] is army worm (Spodoptera frugiperda). Description: Spodoptera frugiperda test (spray treatment), maize leaf disks. To be noted: foliar, 48 h, read-out: Mortality in % after 2d.
Description: (§2) The anticipated effect of a given combination of two active ingredients may be calculated (cf. Colby, S. R., “Calculating Synergistic and Antagonistic Responses of Herbicide Combinations”, Weeds 15, pages 20-22, 1967) as follows: • if • X is the mortality, expressed in % of the untreated control, when active ingredient A is used in an application rate of m ppm, or m g/ha • Y is the mortality, expressed in % of the untreated control, when active ingredient B is used in an application rate of n ppm, or n g/ha • E is the mortality, expressed in % of the untreated control, when active ingredients A and B are used at application rates of m and n ppm or of m and n g/ha, • then
as §1
Spodoptera frugiperda Test (Spray Treatment)
Solvent: 78.0 parts by weight of acetone
• 1.5 parts by weight of dimethylformamide Emulsifier: 0.5 part by weight of alkylaryl polyglycol ether […]
After the desired time, the effect in % is ascertained. […] The mortality figures determined are used for calculation according to the Colby formula (see sheet 1).

A further series concerns Meloidogyne incognita. As to the kind of experiment: Meloidogyne incognita test (gall formation on lettuce roots).
Description: as §2, §1
Meloidogyne incognita Test
Solvent: 125.0 parts by weight of acetone
A suitable preparation of active ingredient is prepared by mixing one part by weight of active ingredient with the stated amounts of solvent and diluting the concentrate with water to the desired concentration. […]
After the desired time, the nematicidal effect is determined on the basis of gall formation in %. […]

The subject of the next series is soya beans (Glycine max). As to the kind of experiment: Glycine max - growth promotion in combination with Mycorrhiza. To be noted: 44 days greenhouse, fresh roots. Here is the method:
Glycine max—Growth Promotion in Combination with Mycorrhiza
Seed of soya beans (Glycine max) is mixed with the desired amount of active ingredient in water. After drying, the seeds are sown in pots filled with sand and perlite (1:1). For inoculation with arbuscular mycorrhiza fungi, the sand-perlite mixture is mixed beforehand with the Mycorrhiza inoculum (AMykor GmbH; Germany) in a concentration of 25 ml/L. The seed is covered with 3 cm of Lecaton (expanded clay).
Over the following 44 days, the plants are cultivated in a greenhouse in good growth conditions. The pots are watered with a nutrient solution (Hoagland and Amon, 1950, half-concentrated solution) with a low phosphate concentration (20 μM).
The untreated control plants are cultured without arbuscular mycorrhiza fungi, but under the same conditions.
The growth-promoting effect on shoot and roots is ascertained via the weight of the fresh roots of the treated plant in comparison to the untreated control.

The subject of series [3] is cotton (Gossypium hirsutum). Description: Seed treatment - cotton emergence test. To be noted: after 2 days. An excerpt: Seed Treatment—Cotton Emergence Test
Seed of cotton (Gossypium hirsutum) is mixed with the desired amount of active ingredient and spores and also water. After drying, 25 seed grains in each case are sown in pots filled with sandy loam.
After 2 days, the effect in % is ascertained on the basis of the cotton plants that have emerged.

[4] abbreviates: Myzus persicae, foliar, 24 h, read-out: Mortality in % after 1d.
[5] abbreviates: 1000 g ai/ha, 100% = all aphids killed.

On to `C/C=C(\C)C(=O)O[C@H]1C[C@@H](OC(C)=O)[C@@]2(C(=O)OC)CO[C@H]3[C@@H](O)[C@@](C)([C@]45O[C@@]4(C)[C@H]4C[C@@H]5O[C@@H]5OC=C[C@@]54O)[C@H]4[C@]1(CO[C@]4(O)C(=O)OC)[C@@H]32` [Azadirachtin, azadirachtin, reference compound], for which, in series [1] (setting [4]), the mortality (in general, the percentage killed) at 100 g/ha turned out to be 0%.
Turning to `O=S(=O)(CCC(F)=C(F)F)c1ncc(Cl)s1` [Fluensulfone, fluensulfone, reference compound], the “Mortality in % after 1d” value in series [1] (2000 g ai/ha) stood at 0%.
As to `O=C(NCCc1ncc(C(F)(F)F)cc1Cl)c1ccccc1C(F)(F)F` [Fluopyram, N-{2-[3-chloro-5-(trifluoromethyl)-2-pyridinyl]ethyl}-2-trifluoromethylbenzamide, reference compound], the mortality at 1000 g/ha in series [2] and in series [1] (setting [4]) was 0% in each case. Also, the mortality at 500 g/ha in series [1] (setting [4]) was 0%. Further, in the series with Meloidogyne incognita (Meloidogyne incognita, 504 h, read-out: Mortality in % after 21d), the mortality at 0.0005 ppm was determined as 0%. Moreover, in the series on soya beans (Glycine max) (0.1 mg/seed grain, seed treatment), the “Root weight in % in comparison to untreated control” value is reported as 116.90%. Also, the “Emergence in % in comparison to untreated control” value (“Emergence in % in comparison” for short) is reported as 100% in series [3] (0.5 g ai/kg seed) and 133% in series [3] (1 g ai/kg seed, untreated = 100).
As to “Bacillus amyloliquefaciens strain FZB 42”, the “Mortality in % after 1d” value in series [1] (2000 g ai/ha) came out at 0%. Moreover, the “Emergence in % in comparison” value in series [3] (0.075 g ai/kg seed) is reported as 158%; in series [3] (0.15 g ai/kg seed), 163%.
For the molecule “Bacillus subtilis strain GB03 [Bacillus subtilis strain GB 03]”, the “Emergence in % in comparison” value in series [3] (0.078 g ai/kg seed) amounted to 158%.
On to “Bacillus thuringiensis subsp. tenebrionis”, for which the “Mortality in % after 1d” value in series [1] (setting [5]) was 0%.
For the molecule Cydia pomonella granulosis virus (CpGV), in series [1] (setting [5]), the “Mortality in % after 1d” value came to 0%.
With Metarhizium anisopliae strain F52, the “Mortality in % after 21d” value in the series on Meloidogyne incognita (5 ppm, nematicidal effect from gall formation) came to 0%.
As to Metschnikowia fructicola, the “Mortality in % after 1d” value in series [1] (setting [5]) amounted to 0%.
For the molecule Paecilomyces lilacinus strain 251, in series [1] (5000 g ai/ha), the “Mortality in % after 1d” value was determined as 0%.
Regarding arbuscular mycorrhiza fungus, the “Root weight in % in comparison to untreated control” value in the series on soya beans (Glycine max) (Mycorrhiza inoculum 25 ml/L in sand-perlite) came to 133.21%.
